The results in this text go back to patent US9290482B2, “Amino-substituted imidazopyridazines” (BAYER PHARMA AKTIENGESELLSCHAFT, priority 2012, dated 2016).

SMILES strings stand for the structures.

In this assay the target is human full-length MKNK1 (Homo sapiens, UniProt Q9BUB5, T344D). Put plainly: MKNK1 kinase high ATP assay (TR-FRET). The class given is biochemical. Particulars: 2 mM ATP, 15 min preincubation with MKNK1, TR-FRET. How it is done:
MKNK1 Kinase High ATP Assay
MKNK1-inhibitory activity at high ATP of compounds of the present invention after their preincubation with MKNK1 was quantified employing the TR-FRET-based MKNK1 high ATP assay as described in the following paragraphs.
A recombinant fusion protein of Glutathione-S-Transferase (GST, N-terminally) and human full-length MKNK1 (amino acids 1-424 and T344D of accession number BAA 19885.1), expressed in insect cells using baculovirus expression system and purified via glutathione sepharose affinity chromatography, was purchased from Carna Biosciences (product no 02-145) and used as enzyme. As substrate for the kinase reaction the biotinylated peptide biotin-Ahx-IKKRKLTRRKSLKG (C-terminus in amide form) was used, which can be purchased e.g. from the company Biosyntan (Berlin-Buch, Germany).
For the assay 50 nl nL of a 100fold concentrated solution of the test compound in DMSO was pipetted into a black low volume 384well microtiter plate (Greiner Bio-One, Frickenhausen, Germany), 2 μL of a solution of MKNK1 in aqueous assay buffer [50 mM HEPES pH 7.5, 5 mM magnesium chloride, 1.0 mM dithiothreitol, 0.005% (v/v) Nonidet-P40 (Sigma)] was added and the mixture was incubated for 15 min at 22° C. to allow pre-binding of the test compounds to the enzyme before the start of the kinase reaction. Then the kinase reaction was started by the addition of 3 μL of a solution of adenosine-tri-phosphate (ATP, 3.3 mM=>final conc. in the 5 μL assay volume is 2 mM) and substrate (0.1 μM=>final conc. in the 5 μL assay volume is 0.06 μM) in assay buffer and the resulting mixture was incubated for a reaction time of 30 min at 22° C. The concentration of MKNK1 was adjusted depending of the activity of the enzyme lot and was chosen appropriate to have the assay in the linear range, typical concentrations were in the range of 0.003 μg/mL. The reaction was stopped by the addition of 5 μL of a solution of TR-FRET detection reagents (5 nM streptavidine-XL665 [Cisbio Bioassays, Codolet, France] and 1 nM anti-ribosomal protein S6 (pSer236)-antibody from Invitrogen [#44921G] and 1 nM LANCE EU-W1024 labeled ProteinG [Perkin-Elmer, product no. AD0071]) in an aqueous EDTA-solution (100 mM EDTA, 0.1% (w/v) bovine serum albumin in 50 mM HEPES pH 7.5).
The resulting mixture was incubated for 1 h at 22° C. to allow the formation of complex between the phosphorylated biotinylated peptide and the detection reagents. Subsequently the amount of phosphorylated substrate was evaluated by measurement of the resonance energy transfer from the Eu-chelate to the streptavidine-XL. Therefore, the fluorescence emissions at 620 nm and 665 nm after excitation at 350 nm were measured in a TR-FRET reader, e.g. a Rubystar (BMG Labtechnologies, Offenburg, Germany) or a Viewlux (Perkin-Elmer). The ratio of the emissions at 665 nm and at […] was taken as the measure for the amount of phosphorylated substrate. The data were normalised (enzyme reaction without inhibitor=0% inhibition, all other assay components but no enzyme=100% inhibition).
Background: Time-resolved FRET reads energy transfer from a long-lived donor to a nearby acceptor.
One may read the IC50 as the concentration that inhibits the measured activity by half. Low readings indicate greater potency, high ones weaker potency. Regarding `CN[C@H](C)COc1ccc2ncc(-c3cc4c(OC)nccc4o3)n2n1` (stereo in doubt) [Example 3, 1-{[3-(4-Methoxyfuro[3,2-c]pyridin-2-yl)imidazo[1,2-b]pyridazin-6-yl]oxy}-N-methylpropan-2-amine], the IC50 turned out to be 32 nM.
The figure for `COc1nccc2oc(-c3cnc4ccc(O[C@@H](CNC5CC5)c5ccc(F)cc5)nn34)cc12` (stereo in doubt) [Example 7, N-[2-(4-Fluorophenyl)-2-{[3-(4-methoxyfuro[3,2-c]pyridin-2-yl)imidazo[1,2-b]-pyridazin-6-yl]oxy}ethyl]cyclopropanamine] is 389 nM; for `COc1nccc2oc(-c3cnc4ccc(OC[C@H]5CNCCO5)nn34)cc12` [Example 1, 3-(4-Methoxyfuro[3,2-c]pyridin-2-yl)-6-[(2R)-morpholin-2-ylmethoxy]imidazo-[1,2-b]pyridazine] it is 11 nM; for `COc1nccc2oc(-c3cnc4ccc(OCC5CNC5)nn34)cc12` [Example 2, 6-(Azetidin-3-ylmethoxy)-3-(4-methoxyfuro[3,2-c]pyridin-2-yl)imidazo[1,2-b]-pyridazine] it is 31 nM.
Regarding `c1cc2oc(-c3cnc4ccc(OC[C@H]5CNCCO5)nn34)cc2cn1` [Example 4, 3-(Furo[3,2-c]pyridin-2-yl)-6-[(2R)-morpholin-2-ylmethoxy]imidazo[1,2-b]-pyridazine], 72 nM corresponded to half-maximal inhibition (IC50).
The figure for `c1cnc2cc(-c3cnc4ccc(OC[C@H]5CNCCO5)nn34)oc2c1` [Example 5, 3-(Furo[3,2-b]pyridin-2-yl)-6-[(2R)-morpholin-2-ylmethoxy]imidazo[1,2-b]-pyridazine] is 86 nM; for `c1cc2oc(-c3cnc4ccc(OCC[C@@H]5CCCN5)nn34)cc2cn1` [Example 6, 3-(Furo[3,2-c]pyridin-2-yl)-6-{2-[(2S)-pyrrolidin-2-yl]ethoxy}imidazo[1,2-b]-pyridazine] it is 132 nM; for `COc1nccc2oc(-c3cnc4ccc(OC[C@@H]5CCCCN5)nn34)cc12` [Example 8, 3-(4-Methoxyfuro[3,2-c]pyridin-2-yl)-6-[(2S)-piperidin-2-ylmethoxy]imidazo-[1,2-b]pyridazine] it is 48 nM.
